In patent publication US5556840A, “2',5'-phosphorothioate oligoadenylates as anitiviral agents” (Temple University - Of The Commonwealth System of Higher …, priority 1994, dated 1996):
Entries after “also recorded” stand apart in the source; their conditions may differ. Where two headings read alike, the source gives them in different places.

What was measured:
[1] = system: HIV reverse transcriptase; test: HIV reverse transcriptase activity; format: biochemical, HIV (HTLV-IIIB); settings: for Percent Inhibition of HIV reverse transcriptase / Reverse Transcriptase Activity: 200 uM; for Reverse Transcriptase Activity: control 187×10^3 cpm (reactions 1-4), 273×10^3 cpm (reactions 5-13)
Method: HIV reverse transcriptase (RNA-dependent DNA nucleotidyl-transferase) activity was assayed by a modification of the procedure of Poiesz et al. (Poiesz, B. J., Ruscetti , F. W., Gazdar, A. F., Bunn, P. S., Minna, J. D., and Gallo, R. C., Proc. Natl. Acad. Sci. U.S.A. 77: 7415-7419 (1980)).
Cultured H-9 cells are grown at 10^6 cells/ml in RPMI-1640 medium and 20% heat-inactivated fetal calf serum. Cell suspensions are centrifuged (1000×g, 10 min.) and the supernatant is removed. Virus particles are precipitated from this cell-free supernatant to which 0.3 ml of 4M NaCl and 3.6 ml of 30% (weight/volume) polyethylene glycol are added. The suspension is placed on ice for 2 hr following centrifugation at 15,000×g for 30 min at 0° C. The precipitate is resuspended in 200 microliters of 50% glycerol (vol./vol.)/25 mM Tris-HCl (pH 7.5)/5 mM dithiothreitol/50 mM KCl/0.025% Triton X-100. Virus particles are lysed by the addition of 100 microliters of 0.9% Triton X-100/1.5M KCl. Reverse transcriptase assays are performed at 37° C. for 1 hr with 10 microliters of the lysed virus solution in a final reaction volume of 100 microliters containing: 40 mM Tris-HCl (pH 7.8), 4 mM dithiothreitol, 45 mM KCl and 2.5 micrograms of template primer [poly(A)-dT15, 0.5 micrograms/microliter] (with a signal Mg^++ concentration of 10 mM). At this time, 10 microliters of the 2',5'-phosphorothioate oligoadenylate is added to a final concentration of 200 micromolar. Reaction mixtures also contain 4 micromoles of [^3 H]dTTP. Reactions are stopped by the addition of cold 5% trichloroacetic acid and filtered through nitrocellulose discs. The discs are dried and the radioactivity bound to the discs is determined. Reverse transcriptase activity is expressed as the percent relative to a control.
The compounds were assayed in the above manner in two sets, each set having a separate set of controls. The compounds of reactions 1-4 were assayed against control #1, which was 187×10^3 cpm. The compounds used in reactions 5-13 were assayed against control #2, which was 273×10^3 cpm.

[2] = system: tobacco mosaic virus (TMV); test: TMV replication in intact Nicotiana glutinosa plants (local lesions); format: in vivo; settings: for Percent TMV Inhibition: 2 × 10^-5 M in infecting solution, 48 hr after infection, half-leaves of N. glutinosa
Method: Carborundum (400 mesh) was sprinkled lightly onto leaves. Solutions containing 0.2 micrograms per ml of TMV and 2×10^-5 M 2',5'-phosphorothioate oligoadenylate in phosphate buffer were applied onto half-leaves of N. glutinosa with either a gloved finger or with a pipettor. The remaining half-leaves were controls (inoculated with the buffer solution containing TMV, but no active compound). The infection was allowed to proceed 48 h under continuous illumination of about 1500 Lx at which time local virus lesions appeared. Inhibition of TMV replication was calculated as the percent of local lesions produced in 2',5'-phosphorothioate oligoadenylate-treated half-leaves compared to control half-leaves.
^4 Inhibition of TMV replication was detected 48 hr after infection
and was calculated as the percent of local lesions produced in treated
halfleaves of N. glutinosa compared to control halfleaves.

SVPD = test: Hydrolysis by SVPD (snake venom phosphodiesterase); format: in vitro ADME
Method: It is known that the enzyme SVPD preferentially cleaves Rp-3',5'- or 2',5'-phosphorothioate linkages from the 2'/3'-terminus. Nelson et al, J. Org. Chem. 49:2314-2317 (1984); Eppstein et al, J. Biol. Chem. 261:5999-6003 (1986); Lee et al, Biochemistry 24:551-555 (1985). SVPD hydrolysis of the chemically synthesized dimer core ARp A yielded adenosine and AMPS in a molar ratio of 1:1, respectively; the half-life was 3 hours (Table 3).
(§1) The metabolic stability of the 2,5'-phosphorothioate dimer and trimer cores is markedly greater than authentic 2-5A. The rate of hydrolysis of the trimer cores by the 3'-exonuclease SVPD is, in order of decreasing stability: ASp ARp A>ARp ARp A>>>A3. […] The 3'->'5'direction of stepwise cleavage by SVPD is blocked by an Sp configuration, preventing cleavage of the upstream adjacent phosphorothioate linkage. […] With both SVPD and 2'-PDE, the dimer cores (either ARp A or ASp A) accumulate following hydrolysis of the ARp ARp A, ASp ARp A and ARp ASp A trimer cores. Hydrolysis of the 2-5A molecule by SVPD and 2'-PDE proceeds from the 2'/3'-terminus. Therefore, introduction of the phosphorothioate group into the trimer core results in the accumulation of the ARp A or ASp A dimer cores from the 5'-terminus and the accumulation of AMPS from the 2'/3'-terminus (Table 3). With authentic A3, there is no detectable accumulation of A2 following hydrolysis by SVPD or 2'-PDE.

[3] = system: 2'-phosphodiesterase (2'-PDE), L cell extract; test: Hydrolysis by 2'-phosphodiesterase in L cell extract; format: in vitro ADME
Excerpt: The four 2,5-phosphorothioate adenylate trimer cores were further characterized by hydrolysis with the enzyme 2'-phosphodiesterase ("2'-PDE"), an exoribonuclease found in L cell extract The enzyme cleaves from the 2'/3'-terminus.
as §1

RNase L [4] = test: Core-cellulose assay: activation of partially-purified RNase L to hydrolyze poly(U)-3'-[32P]pCp; format: biochemical, mouse
Method: FIG. 1B represents the results of a core-cellulose assay indicating the ability of the 2',5'-phosphorothioate adenylate trimer cores and 5'-monophosphates to activate partially-purified RNase L from L929 cell extracts to hydrolyze the substrate polY(U)-3'-[^32 P]pCp. Activation of RNase L was determined by conversion of poly (U )-3'-[^32 P]pCp to acid-soluble fragments. 100% represents 30,000 cpm of labelled poly(U)-3'-[^32 P]pCp bound to glass fiber filters. The curves are labelled in the same manner as FIG. 1A.
The 2',5'-phosphorothioate cores, with one exception, have the correct stereoconfiguration to activate RNase L. The activation of partially-purified RNase L by the 2',5'-phosphorothioates was measured according to the core-cellulose assay of Silverman, Analyt. Biochem. 144:450-460 (1985) which relies on hydrolysis of the substrate poly(U)-3-[^32 P]pCp. […] (FIG. 1B) The order of activation of the trimer cores and the corresponding 5'-monophosphates is: RpRp>SpRp>RpSp (FIG. 1B).

RNase L [5] = test: rRNA cleavage assay using L929 cell extracts (28S and 18S rRNA); format: biochemical, mouse; settings: for concentration at which RNase L was activated to cleave 28S and 18S rRNA: L929 cell extracts, '>' = no activation at that concentration
Method: Activation of RNase L by 2',5'-phosphorothioate adenylate trimer cores and their 5'-monophosphates was also measured in an rRNA cleavage assay using L929 cell extracts.
The corresponding 5'-monophosphates pARp ARp A, pASp ARp A (at 10^-8 M) and pARp ASp A (at 10^-7 M) activated RNase L to cleave 28S and 18S rRNA.

RNase L [6] = test: Activation or inhibition of RNase L, general statements without assay named; format: biochemical
serum phosphodiesterases = test: Hydrolysis by serum phosphodiesterases
phosphodiesterases = test: Metabolic stability, general statements; format: in vitro ADME

Compound: (Rp)-P-thioadenylyl-(2'-5')-(Sp)-P-thioadenylyl-(2'-5')-(Sp)-P-thioadenylyl-(2'-5')-adenosine [ARp ASp ASp A]
- Percent Inhibition of HIV reverse transcriptase [1]: 46%
- Reverse Transcriptase Activity [1]: 147 10^3 cpm
- Percent TMV Inhibition [2]: 80%

Compound: (Sp)-P-thioadenylyl-(2'-5')-(Sp)-P-thioadenylyl-(2'-5')-(Sp)-P-thioadenylyl-(2'-5')-adenosine [ASp ASp ASp A]
- Percent Inhibition of HIV reverse transcriptase [1]: 45%
- Reverse Transcriptase Activity [1]: 149 10^3 cpm
- Percent TMV Inhibition [2]: 70%

Compound: (Sp)-P-Thioadenylyl-(2'-5')-(Sp)-P-thioadenylyl-(2'-5')-adenosine [Compound 10B]
- hydrolysis by SVPD (result in words) (SVPD): not substrates for SVPD; also recorded: not cleaved
- hydrolysis by SVPD (result in words) (SVPD; listed as ASp ASp A): not substrates of SVPD
- hydrolysis by L cell extract / 2'-PDE (result in words) [3]: not cleaved
- hydrolysis by L cell extract / 2'-PDE (result in words) ([3]; listed as ASp ASp A): not cleaved by L-cell extract
- inhibition of RNase L activation, core-cellulose assay (result in words) (RNase L [4]): inhibit RNase L activation
- concentration up to which RNase L was not activated, core-cellulose assay (RNase L [4]; poly(U)-3'-[32P]pCp substrate, not activated at the concentration): > 10^-3 M
- inhibition of RNase L activation, rRNA cleavage assay (result in words) (RNase L [5]): inhibit RNase L activation
- concentration at which RNase L was activated to cleave 28S and 18S rRNA (RNase L [5]): > 10^-4 M
- Percent Inhibition of HIV reverse transcriptase [1]: 20%
- Reverse Transcriptase Activity [1]: 219 10^3 cpm
- Percent TMV Inhibition [2]: 80%
- effect on RNase L activation (result in words) (RNase L [6]): selectively inactivates RNase L
- hydrolysis by serum phosphodiesterases (result in words) (serum phosphodiesterases): not cleaved

Compound: (Sp)-P-Thioadenylyl-(2'-5')-(Rp)-P-thioadenylyl-(2'-5')-adenosine [Compound 9B]
- half life, hydrolysis by SVPD (SVPD): 8 h
- hydrolysis by SVPD (result in words) (SVPD): yielded ASp A and AMPS
- half life, hydrolysis by L cell extract [3]: 15 h
- concentration at which RNase L was activated to cleave 28S and 18S rRNA (RNase L [5]): 10^-5 M
- Percent Inhibition of HIV reverse transcriptase [1]: 6%
- Reverse Transcriptase Activity [1]: 258 10^3 cpm
- Percent TMV Inhibition [2]: 33%
- hydrolysis by serum phosphodiesterases (result in words) (serum phosphodiesterases): not cleaved

Compound: Nc1ncnc2c1ncn2[C@@H]1O[C@H](CO[P@@](O)(=S)O[C@@H]2[C@H](O)[C@@H](CO)O[C@H]2n2cnc3c(N)ncnc32)[C@@H](O)[C@H]1O [Compound 6A, P-Thioadenylyl-(2'-5')-adenosine]
- half life, hydrolysis by SVPD (SVPD): 3 h
- hydrolysis by L cell extract / 2'-PDE (result in words) [3]: not cleaved
- hydrolysis by L cell extract / 2'-PDE (result in words) ([3]; listed as ARp A): not substrates for 2'-PDE
- hydrolysis by serum phosphodiesterases (result in words) (serum phosphodiesterases): not cleaved

Compound: 5'-O-Phosphoryl-(Sp)-thioadenylyl-(2'-5')-(Sp)-thioadenylyl-(2'-5')-adenosine [pASp ASp A]
- concentration at which RNase L was activated to cleave 28S and 18S rRNA (RNase L [5]): > 10^-5 M
- inhibition of HIV reverse transcriptase (result in words) [1]: inhibit HIV reverse transcriptase activity and tobacco mosaic virus replication
- Percent Inhibition of HIV reverse transcriptase [1]: 15%
- Reverse Transcriptase Activity [1]: 232 10^3 cpm
- Percent TMV Inhibition [2]: 40%
- inhibition of TMV replication (result in words) ([2]; in vivo): inhibit HIV reverse transcriptase activity and tobacco mosaic virus replication
- effect on RNase L activation (result in words) (RNase L [6]): selectively inhibits activation of RNase L at physiological concentrations; also recorded: metabolically stable inhibitor of RNase L; also recorded: most effective inhibitor of RNase L reported to date
- metabolic stability (result in words) (phosphodiesterases): metabolically stable to specific and non-specific phosphodiesterases

Compound: 5'-O-Phosphoryl-(Rp)-thioadenylyl-(2'-5')-(Sp)-thioadenylyl-(2'-5')-adenosine [pARp ASp A]
- concentration at which RNase L was activated to cleave 28S and 18S rRNA (RNase L [5]): 10^-7 M
- Percent Inhibition of HIV reverse transcriptase [1]: 25%
- Reverse Transcriptase Activity [1]: 206 10^3 cpm
- Percent TMV Inhibition [2]: 15%
- effect on RNase L activation (result in words) (RNase L [6]): relatively metabolically stable and highly efficient activator for RNase L

Compound: (Rp)-P-Thioadenylyl-(2'-5')-(Rp)-P-thioadenylyl-(2'-5')-adenosine [Compound 9A]
- half life, hydrolysis by SVPD (SVPD): 1 h
- hydrolysis by SVPD (result in words) (SVPD): hydrolysis by SVPD to yield AMPS plus ARp A
- half life, hydrolysis by L cell extract [3]: 18 h
- concentration at which RNase L was activated to cleave 28S and 18S rRNA (RNase L [5]): 10^-5 M
- Percent Inhibition of HIV reverse transcriptase [1]: 18%
- Reverse Transcriptase Activity [1]: 224 10^3 cpm
- Percent TMV Inhibition [2]: 57%
- half life, hydrolysis by serum phosphodiesterases (serum phosphodiesterases): 8 h

Compound: Nc1ncnc2c1ncn2[C@@H]1O[C@H](CO[P@](O)(=S)O[C@@H]2[C@H](O)[C@@H](CO)O[C@H]2n2cnc3c(N)ncnc32)[C@@H](O)[C@H]1O [Compound 6B, P-Thioadenylyl-(2'-5')-adenosine]
- hydrolysis by SVPD (result in words) (SVPD): not cleaved
- hydrolysis by SVPD (result in words) (SVPD; listed as ASp A): not a substrate for SVPD
- hydrolysis by L cell extract / 2'-PDE (result in words) [3]: not cleaved
- hydrolysis by L cell extract / 2'-PDE (result in words) ([3]; listed as ASp A): not substrates for 2'-PDE
- hydrolysis by serum phosphodiesterases (result in words) (serum phosphodiesterases): not cleaved

Compound: 5'-O-Phosphoryl-(Sp)-thioadenylyl-(2'-5')-(Rp)-thioadenylyl-(2'-5')-adenosine [pASp ARp A]
- concentration at which RNase L was activated to cleave 28S and 18S rRNA (RNase L [5]): 10^-8 M
- Percent Inhibition of HIV reverse transcriptase [1]: 16%
- Reverse Transcriptase Activity [1]: 230 10^3 cpm
- Percent TMV Inhibition [2]: 23%
